Article PMC11834182 (Parasites & Vectors, 2025)
Where two headings read alike, the source gives them in different places.

Legend:
[1] = target: T1, rPpAChE1 (Phlebotomus papatasi, UniProt M1F887); assay: biochemical; set-up: gene AChE; PpAChE1 cDNA in pBlueBac4.5/V5-His, baculovirus expression in Sf21 cells, expression supernatant; species or system Sf21 (expression host)
[2] = target: T1, rPpAChE1; assay: biochemical; set-up: gene AChE
[3] = system: CC(=O)SCC[N+](C)(C)C; assay: cells, lysate or membranes; conditions: pH 7.0

Q: How did the IC50 [1] turn out when `CCOC(=O)CC(SP(=O)(OC)OC)C(=O)OCC` (stereo not shown) [Maloxon] was run?
A: Its IC50 is 0.044 µM.

Q: Which IC50 [2] does the source give for `c1ccc2c(NCCCCCCCNc3c4c(nc5ccccc35)CCCC4)c3c(nc2c1)CCCC3` [bis(7)-tacrine] here?
A: Its IC50 is 0.004 µM.

Q: With rPpAChE1 (Phlebotomus papatasi) as the molecule, how does the Km [3] read?
A: Its Km is 123 ± 25 µM.

Q: And the Vmax [3]?
A: Its Vmax is 74 ± 6.7 µmol/min/mg.
